Measured values from patent US9518282B2, “Method for utilizing monoterpene glycosyltransferase” (SUNTORY HOLDINGS LIMITED, priority 2010, dated 2016).

Legend:
[1] = molecular target: T1, UGT85A3 (Arabidopsis thaliana, UniProt Q9LMF1); test: Glycosylation activity of purified UGT85A3 on sugar acceptor substrates, LC-MS; format: biochemical; set-up: made in house; host or cells: E. coli BL21(DE3); settings: for glycosylation activity of UGT85A3 on the sugar acceptor (product detected by LC-MS): 2 mM UDP-glucose, 1.5 mM sugar acceptor substrate, pH 7.5, 30° C., 1 hour
T1 sequence (Q9LMF1 1-488): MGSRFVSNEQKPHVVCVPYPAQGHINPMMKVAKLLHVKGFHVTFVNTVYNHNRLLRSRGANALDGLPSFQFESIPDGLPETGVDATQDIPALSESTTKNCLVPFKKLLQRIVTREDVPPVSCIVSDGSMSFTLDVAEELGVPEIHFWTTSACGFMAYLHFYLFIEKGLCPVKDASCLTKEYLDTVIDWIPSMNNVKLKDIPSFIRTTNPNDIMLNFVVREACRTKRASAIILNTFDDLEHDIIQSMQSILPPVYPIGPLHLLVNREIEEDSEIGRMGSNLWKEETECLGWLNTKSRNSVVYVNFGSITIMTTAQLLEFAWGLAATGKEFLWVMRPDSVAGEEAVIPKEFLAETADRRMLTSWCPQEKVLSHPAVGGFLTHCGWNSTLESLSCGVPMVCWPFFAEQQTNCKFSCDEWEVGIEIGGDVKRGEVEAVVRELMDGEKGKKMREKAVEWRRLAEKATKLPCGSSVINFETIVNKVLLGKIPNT
Protocol: Standard enzyme reaction conditions are as follows. […] LC Conditions Column: CAPCELL PAK C18-UG120 (2.0 mm I.D.×150 mm) Mobile phase: A: water (containing 0.05% formic acid), B: acetonitrile Gradient: linear concentration gradient of B from 15% to 90% over 15 minutes Flow rate: 0.2 ml per minute Column oven: 40° C. MS Conditions ESI (negative mode) SIM mode: (m/z 315, 338, 361, 363, 331, 354, 377, 429, etc.)

[2] = molecular target: T1, UGT85A3; settings: 8-hydroxygeraniol as sugar acceptor; fraction of the UDP-glucose level
Protocol: (§1) Standard enzyme reaction conditions are as follows.
(§2) The enzyme reaction solution (5 μl) was analyzed by LC-MS under the following conditions.

[3] = molecular target: T2, UGT85A1 (Arabidopsis thaliana, UniProt Q9SK82); test: Glycosylation activity of UGT85A1 on sugar acceptors, LC-MS; format: biochemical; settings: for relative activity of UGT85A1 on sugar acceptors (in words, FIG. 12): measured per unit reaction time (5 minutes); for glycosylated product of UGT85A1 reaction detected (FIG. 11): same manner as Example 4, LC-MS
T2 construct: made in house; host or cells: E. coli
T2 sequence (Q9SK82 1-489): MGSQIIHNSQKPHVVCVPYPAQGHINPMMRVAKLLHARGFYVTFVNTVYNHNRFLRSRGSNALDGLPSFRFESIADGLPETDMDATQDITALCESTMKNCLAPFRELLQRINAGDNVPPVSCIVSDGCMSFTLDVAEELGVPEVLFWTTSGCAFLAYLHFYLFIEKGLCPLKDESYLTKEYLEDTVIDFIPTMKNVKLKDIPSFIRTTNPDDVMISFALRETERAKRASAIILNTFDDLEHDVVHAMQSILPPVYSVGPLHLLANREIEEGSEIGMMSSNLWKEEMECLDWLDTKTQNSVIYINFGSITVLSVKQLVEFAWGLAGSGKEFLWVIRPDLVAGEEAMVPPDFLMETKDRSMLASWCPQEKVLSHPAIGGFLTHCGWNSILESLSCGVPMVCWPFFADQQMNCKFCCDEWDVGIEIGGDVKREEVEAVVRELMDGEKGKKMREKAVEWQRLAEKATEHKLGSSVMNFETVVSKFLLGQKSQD
Protocol: as §1, §2
In the same manner as shown in Example 4, linalool, 8-hydroxylinalool, geraniol and 8-hydroxygeraniol were used as sugar acceptors for activity measurement.

Molecule | glycosylation activity of UGT85A3 on the sugar acceptor (product detected by LC-MS) [1] | relative activity of UGT85A1 on sugar acceptors (in words, FIG. 12) [3] | glycosylated product of UGT85A1 reaction detected (FIG. 11) [3] | further results
O=c1c(O)c(-c2ccc(O)c(O)c2)oc2cc(O)cc(O)c12 [Quercetin] | no glycosylation activity | – | – | –
UDP-gluconic acid | – | – | – | product level with the sugar donor relative to that with UDP-glucose (FIG. 8) [2]: less than 1/10
O=c1ccc2cc(O)c(O)cc2o1 [Esculetin] | no glycosylation activity | – | – | –
O=C1C[C@@H](c2ccc(O)cc2)Oc2cc(O)cc(O)c21 [Naringenin] | no glycosylation activity | – | – | –
O=c1cc(-c2ccc(O)cc2)oc2cc(O)cc(O)c12 [Apigenin] | no glycosylation activity | – | – | –
C=CC(C)(O)CCC=C(C)C (stereo not shown) [linalool] | – | very low relative activity | glycosylated products were detected | –
CC(C)=CCC/C(C)=C/CO [geraniol] | – | higher selectivity for geraniol than linalool | glycosylated products were detected | –
CC(C)=CCCC(C)CCO (stereo not shown) [citronellol] | glycosylation activity | – | – | –
C=CC(C)(O)CCC=C(C)CCC=C(C)C (stereo not shown) [nerolidol] | glycosylation activity | – | – | –
C/C(=C\CC/C(C)=C/CO)CO [8-hydroxygeraniol, 8-Hydroxygeraniol] | a peak with a molecular weight suggesting addition of one glucose molecule was obtained | higher activity | glycosylated products were detected | sugar acceptor selectivity of UGT85A1 (relative activity) ([3]; highest activity set to 100%, FIG. 12): 100%; activity of UGT85A3 on the 8-hydroxylated form compared with geraniol / linalool (FIG. 7) ([1]; UDP-glucose as sugar donor, product yields compared): higher activity
